Source: ChEMBL document CHEMBL1136439, “Synthesis and bioactivities of nitronyl nitroxide and RGD containing pseudopeptides” (2003)
Where a SMILES comes first, the peptide text is derived from it. The star is where a group is joined. X1 = CC1(C)N(O)C(c2ccc(OCC(=O)*)cc2)=[N+]([O-])C1(C)C

How the values were obtained:
[1] = organism: Oryctolagus cuniculus; experiment: Maximum rate of ADP induced platelet aggregation was determined in rabbit blood at a dose of 10-5 mol/L (in vitro); format: functional
[2] = organism: Oryctolagus cuniculus; experiment: Maximum rate of PAF induced platelet aggregation was determined in rabbit blood at a dose of 10-7 mol/L (in vitro); format: functional
[3] = organism: Oryctolagus cuniculus; experiment: Maximum rate of ADP induced platelet aggregation was determined in rabbit blood at a dose of 10-6 mol/L (in vitro); format: functional
[4] = test system: Rattus norvegicus; experiment: Effect on the dry thrombus weight in male wistar rat was determined(in vivo); format: functional
[5] = organism: Oryctolagus cuniculus; experiment: Maximum rate of PAF induced platelet aggregation was determined in rabbit blood at a dose of 10-6 mol/L (in vitro); format: functional
[6] = test system: Rattus norvegicus; experiment: Effect on the wet thrombus weight in male wistar rat was determined(in vivo); format: functional; parameters: unit not given beside the values
[7] = organism: Rattus norvegicus; experiment: Compound tested for inhibition of Ach-induced vasorelaxation was determined in rat aortic strips; format: functional, Aorta; parameters: concentration or dose not given beside the values
[8] = organism: Oryctolagus cuniculus; experiment: Maximum rate of ADP induced platelet aggregation was determined in rabbit blood at a dose of 10-7 mol/L (in vitro); format: functional
[9] = organism: Oryctolagus cuniculus; experiment: Maximum rate of PAF induced platelet aggregation was determined in rabbit blood at a dose of 10-5 mol/L (in vitro); format: functional

`CC1(C)N(O)C(c2ccc(OCC(=O)O)cc2)=[N+]([O-])C1(C)C` showed an Am [1] of 51.6%, an Am [2] of 54.25% and an Am [3] of 51.96%. For the same compound, the Activity [4] was 6.17, the Am [5] was 52.98% and the Activity [6] was 38.1. For the same compound, the Inhibition [7] was 99.2%, the Am [8] was 54.68% and the Am [9] was 52.92%.

`N=C(N)NCCC[C@H](N)C(=O)NCC(=O)N[C@@H](CC(=O)O)C(=O)N[C@@H](CO)C(=O)O` gave an Am [1] of 17.02%, an Am [2] of 54.21% and an Am [3] of 40.14%. The Activity [4] was 6.68, the Am [5] was 37.1% and the Activity [6] was 36.96. The Inhibition [7] was 3.2%, the Am [8] was 53.55% and the Am [9] was 22.66%.

`N=C(N)NCCC[C@H](N)C(=O)NCC(=O)N[C@@H](CC(=O)O)C(=O)N[C@@H](Cc1ccccc1)C(=O)O` (H-RGDF-OH) showed an Am [1] of 10.13%, an Am [2] of 51.88% and an Am [3] of 24.15%. For the same compound, the Activity [4] was 3.94, the Am [5] was 25.18% and the Activity [6] was 25.61. For the same compound, the Inhibition [7] was 2.6%, the Am [8] was 33.76% and the Am [9] was 10.22%.

Work on `CC(C)[C@H](NC(=O)[C@H](CC(=O)O)NC(=O)CNC(=O)[C@@H](N)CCCNC(=N)N)C(=O)O` (H-RGDV-OH) yielded an Am [1] of 12.07%, an Am [2] of 52.66% and an Am [3] of 28.9%. For the same compound, the Activity [4] was 5.13, the Am [5] was 35.11% and the Activity [6] was 32.62. For the same compound, the Inhibition [7] was 2.4%, the Am [8] was 50.06% and the Am [9] was 20.5%.

In the case of `CC1(C)N(O)C(c2ccc(OCC(=O)N[C@@H](CCCN=C(N)N)C(=O)NCC(=O)N[C@@H](CC(=O)O)C(=O)N[C@@H](Cc3ccccc3)C(=O)O)cc2)=[N+]([O-])C1(C)C` (X1-RGDF-OH), the Am [1] is reported as 10.21%, the Am [2] is reported as 50.02% and the Am [3] is reported as 20.66%. The Activity [4] was 3.16, the Am [5] was 24.26% and the Activity [6] was 24.3. It also gave an Inhibition [7] of 88.9%, an Am [8] of 35.25% and an Am [9] of 9.98%.

With `CC1(C)N(O)C(c2ccc(OCC(=O)N[C@@H](CCCN=C(N)N)C(=O)NCC(=O)N[C@@H](CC(=O)O)C(=O)N[C@@H](CO)C(=O)O)cc2)=[N+]([O-])C1(C)C` (X1-RGDS-OH) the Am [1] was 16.91%, the Am [2] was 52.1% and the Am [3] was 40.05%. The Activity [4] was 5.08, the Am [5] was 35.11% and the Activity [6] was 32.09. It also gave an Inhibition [7] of 88.9%, an Am [8] of 51.46% and an Am [9] of 22.05%.

In the case of `CC(C)[C@H](NC(=O)[C@H](CC(=O)O)NC(=O)CNC(=O)[C@H](CCCN=C(N)N)NC(=O)COc1ccc(C2=[N+]([O-])C(C)(C)C(C)(C)N2O)cc1)C(=O)O` (X1-RGDV-OH), the Am [1] is reported as 11.85%, the Am [2] is reported as 50.88% and the Am [3] is reported as 24.99%. It also gave an Activity [4] of 4.07, an Am [5] of 33.22% and an Activity [6] of 29.49. The Inhibition [7] was 91.2%, the Am [8] was 49.98% and the Am [9] was 20.45%.

With `CC(=O)Oc1ccccc1C(=O)O` [ASPIRIN] the Am [1] was 30.01%, the Am [2] was 53.42% and the Am [3] was 42.58%. The Activity [4] was 3.99, the Am [5] was 36.98% and the Activity [6] was 28.11. For the same compound, the Am [8] was 54.89% and the Am [9] was 29.99%.
